Data on two molecules can be found in patent publication US20170290774A1, “NEUROKININ-1 RECEPTOR ANTAGONIST COMPOSITION FOR TREATMENT OF DISEASES AND CONDITIONS OF THE RESPIRATORY TRACT” (PLUS VITECH, S.L., priority 2014, published 2017).

What all share (type): physicochemical
Common to all, as to settings: 25° C.

Series [1] in a line: Saturation concentration of NK1 receptor antagonists in olive oil. On the procedure: Each of said mixtures was continuously and gently stirred for 10 minutes at ambient temperature (25° C.) and then maintained at rest for 60 minutes. The saturation concentration was considered to be that which was immediately lower in the aforementioned series than a concentration where deposition was observed, but in which no deposition of the active ingredient was observed.

Series [2] can be described thus: Saturation concentration in olive oil:ethanol (9:1). The procedure: (§1) Each of said mixtures was continuously and gently stirred for 10 minutes at ambient temperature (25° C.) and then maintained at rest for 60 minutes. The saturation concentration was considered to be that which was immediately less than a concentration where deposition was observed, but in which no deposition of the active ingredient was observed.

Series [3] is described as follows: Saturation concentration in different oils (soy, sunflower, rapeseed). The procedure:
as §1

As for `CC(=O)N1CCN([C@H]2CCN(C(=O)N(C)[C@H](C)c3cc(C(F)(F)F)cc(C(F)(F)F)c3)[C@@H](c3ccc(F)cc3C)C2)CC1` [Casopitant], the Saturation concentration in series [1] is 40 nM; in series [2] it was 65 nM; in series [3] (Rapeseed oil), 70 nM; in series [3] (Soy oil), 60 nM; in series [3] (Sunflower oil), 60 nM.
On to `CC(=O)N[C@@H](Cc1c[nH]c2ccccc12)C(=O)OCc1cc(C(F)(F)F)cc(C(F)(F)F)c1` [L-732,138], for which the Saturation concentration in series [1] came out at 80 nM; in series [2], 100 nM; in series [3] (Rapeseed oil) it was 90 nM; in series [3] (Soy oil), 90 nM; in series [3] (Sunflower oil), 80 nM.
